Measurements reported in ChEMBL document CHEMBL3885881, “DrugMatrix”.

Organism: Rattus norvegicus
Assay: DrugMatrix - Regimen: Daily Repeat
Format: toxicity, organism-based, Sprague-Dawley
Design: regimen Daily Repeat, gender Male, age 6-8 weeks
Details: in vivo, ip, route intraperitoneal, vehicle 100 % SALINE; for URIC ACID / ALANINE AMINOTRANSFERASE / ALBUMIN / ALKALINE PHOSPHATASE / ASPARTATE AMINOTRANSFERASE / BLOOD UREA NITROGEN / CHLORIDE / CHOLESTEROL / CREATINE PHOSPHOKINASE / CREATININE / GLUCOSE / LACTATE DEHYDROGENASE / LIPASE / PHOSPHORUS / POTASSIUM / SODIUM / TOTAL BILIRUBIN / TOTAL PROTEIN: tissue Plasma
[1] = 5 mg/kg, 120 h, tissue Blood, dose level High, time 5 day
[2] = 5 mg/kg, 120 h, dose level High, time 5 day
[3] = 5 mg/kg, […], tissue Blood, dose level High, time 14 day
[4] = 5 mg/kg, […], tissue Blood, dose level High, time 28 day
[5] = 5 mg/kg, […], dose level High, time 14 day
[6] = 5 mg/kg, […], dose level High, time 28 day

Sequence: CARBOPLATIN
- URIC ACID (0 mg/kg, […], dose level Control, time 28 day): 1.26 mg/dL
- ABSOLUTE BASOPHIL [1]: 26 cells/µL
- ABSOLUTE EOSINOPHIL [1]: 44 cells/µL
- ABSOLUTE LYMPHOCYTE [1]: 5500 cells/µL
- ABSOLUTE MONOCYTE [1]: 120 cells/µL
- ABSOLUTE SEGMENTED NEUTROPHIL [1]: 520 cells/µL
- BASOPHIL [1]: 0.4%
- EOSINOPHIL [1]: 0.72%
- ERYTHROCYTE COUNT [1]: 7.51 x10E6/uL
- HEMATOCRIT [1]: 46.82%
- LEUKOCYTE COUNT [1]: 6.24 x10E3/uL
- LYMPHOCYTE [1]: 88.18%
- MEAN CORPUSCULAR HEMOGLOBIN [1]: 20.08 pg
- MEAN CORPUSCULAR HEMOGLOBIN CONCENTRATION [1]: 32.18 G/DL
- MONOCYTE [1]: 2.02%
- NEUTROPHIL [1]: 8.22%
- PLATELET COUNT [1]: 1572.2 x10E3/uL
- ALANINE AMINOTRANSFERASE [2]: 21.4 u/L
- ALBUMIN [2]: 3.62 G/DL
- ALKALINE PHOSPHATASE [2]: 214.8 u/L
- ASPARTATE AMINOTRANSFERASE [2]: 70.6 u/L
- BLOOD UREA NITROGEN [2]: 14.6 mg/dL
- CHLORIDE [2]: 107.4 MEQ/L
- CHOLESTEROL [2]: 59.4 mg/dL
- CREATINE PHOSPHOKINASE [2]: 192.6 u/L
- CREATININE [2]: 0.54 mg/dL
- GLUCOSE [2]: 139.6 mg/dL
- LACTATE DEHYDROGENASE [2]: 65 u/L
- LIPASE [2]: 27.2 u/L
- PHOSPHORUS [2]: 11.28 mg/dL
- POTASSIUM [2]: 5.36 MEQ/L
- SODIUM [2]: 146.8 MEQ/L
- TOTAL BILIRUBIN [2]: 0.18 mg/dL
- TOTAL PROTEIN [2]: 6.16 G/DL
- URIC ACID [2]: 1.16 mg/dL
- ABSOLUTE BASOPHIL [3]: 130 cells/µL
- ABSOLUTE EOSINOPHIL [3]: 88 cells/µL
- ABSOLUTE LYMPHOCYTE [3]: 8780 cells/µL
- ABSOLUTE MONOCYTE [3]: 260 cells/µL
- ABSOLUTE SEGMENTED NEUTROPHIL [3]: 1370 cells/µL
- BASOPHIL [3]: 1.28%
- EOSINOPHIL [3]: 0.82%
- ERYTHROCYTE COUNT [3]: 7.59 x10E6/uL
- HEMATOCRIT [3]: 44.92%
- LEUKOCYTE COUNT [3]: 10.68 x10E3/uL
- LYMPHOCYTE [3]: 81.92%
- MEAN CORPUSCULAR HEMOGLOBIN [3]: 19.52 pg
- MEAN CORPUSCULAR HEMOGLOBIN CONCENTRATION [3]: 32.96 G/DL
- MONOCYTE [3]: 2.38%
- NEUTROPHIL [3]: 13.02%
- PLATELET COUNT [3]: 1274 x10E3/uL
- ABSOLUTE BASOPHIL [4]: 170 cells/µL
- ABSOLUTE EOSINOPHIL [4]: 89 cells/µL
- ABSOLUTE LYMPHOCYTE [4]: 9490 cells/µL
- ABSOLUTE MONOCYTE [4]: 290 cells/µL
- ABSOLUTE SEGMENTED NEUTROPHIL [4]: 1640 cells/µL
- BASOPHIL [4]: 1.3%
- EOSINOPHIL [4]: 0.78%
- ERYTHROCYTE COUNT [4]: 8.56 x10E6/uL
- HEMATOCRIT [4]: 50.05%
- LEUKOCYTE COUNT [4]: 11.75 x10E3/uL
- LYMPHOCYTE [4]: 81.13%
- MEAN CORPUSCULAR HEMOGLOBIN [4]: 19.05 pg
- MEAN CORPUSCULAR HEMOGLOBIN CONCENTRATION [4]: 32.58 G/DL
- MEAN CORPUSCULAR VOLUME [4]: 58.46 fL
- MONOCYTE [4]: 2.43%
- NEUTROPHIL [4]: 13.81%
- PLATELET COUNT [4]: 1331.9 x10E3/uL
- ALANINE AMINOTRANSFERASE [5]: 30.2 u/L
- ALBUMIN [5]: 3.48 G/DL
- ALKALINE PHOSPHATASE [5]: 147.2 u/L
- ASPARTATE AMINOTRANSFERASE [5]: 92.8 u/L
- BLOOD UREA NITROGEN [5]: 12.2 mg/dL
- CHOLESTEROL [5]: 54 mg/dL
- CREATINE PHOSPHOKINASE [5]: 251.2 u/L
- CREATININE [5]: 0.46 mg/dL
- GLUCOSE [5]: 105.2 mg/dL
- LACTATE DEHYDROGENASE [5]: 123.4 u/L
- LIPASE [5]: 31.2 u/L
- PHOSPHORUS [5]: 8.36 mg/dL
- POTASSIUM [5]: 5.68 MEQ/L
- SODIUM [5]: 149.4 MEQ/L
- TOTAL BILIRUBIN [5]: 0.22 mg/dL
- TOTAL PROTEIN [5]: 6.24 G/DL
- URIC ACID [5]: 0.6 mg/dL
- ALANINE AMINOTRANSFERASE [6]: 36.4 u/L
- ALBUMIN [6]: 3.74 G/DL
- ALKALINE PHOSPHATASE [6]: 135 u/L
- ASPARTATE AMINOTRANSFERASE [6]: 95.6 u/L
- BLOOD UREA NITROGEN [6]: 13.2 mg/dL
- CHLORIDE [6]: 106.6 MEQ/L
- CHOLESTEROL [6]: 55.8 mg/dL
- CREATINE PHOSPHOKINASE [6]: 186.2 u/L
- CREATININE [6]: 0.51 mg/dL
- GLUCOSE [6]: 115.1 mg/dL
- LACTATE DEHYDROGENASE [6]: 98.7 u/L
- LIPASE [6]: 8.62 u/L
- PHOSPHORUS [6]: 9.03 mg/dL
- POTASSIUM [6]: 6.36 MEQ/L
- SODIUM [6]: 150.9 MEQ/L
- TOTAL BILIRUBIN [6]: 0.22 mg/dL
